Source: patent US20250109127A1, “METHODS OF USE OF PHENOXYPROPYLAMINE COMPOUNDS TO TREAT DEPRESSION” (Minerva Neurosciences, Inc., priority 2013, published 2025)
Several values for one entry are separate records, joined by “and”; a condition that tells them apart may be missing. Equal values may be shown once.

Tested on: HVA release in the rat prefrontal cortex
Experiment: Microdialysis: HVA release in prefrontal cortex after I.P. administration
Type: in vivo
Conditions: Citalopram 10 mg/kg I.P.
Description: The aim of the study was to evaluate, using microdialysis, the effects of an intraperitoneal (I.P.) administration in rats of three different doses of SON-117 on dopamine and its metabolites, serotonin and its metabolite (5-HIAA), and norepinephrine levels in prefrontal cortex.
Thirty-two adult male Wistar rats were used for the whole study (4 groups of eight animals planned for the study, Table 1).
Surgery was performed on rats weighing about 300 g at the beginning of the experiments. Rats were anaesthetized with Ketamine (50 mg/kg) & Xylazine (15 mg/kg) by intramuscular administration. The animals were placed in a stereotaxic apparatus in the flat-skull position at a constant setting of −3.3 mm between ear bars and the incisor bar. The animals were treated with a local anesthesic (xylocaine 1%, Astra Zeneca) and an analgesic (Temgesic, from Schering Plough, 0.05 mg/kg, s.c.). A rostrocaudal midline incision was made with a lancet to expose the dorsal skull surface. The “stereotaxic zero” was defined by the Bregma in accordance with Paxinos and Watson's atlas (1986). A hole was drilled in the skull with a drill and the meninges were pierced with a sterile needle to implant a CMA12 guide cannula which later received the dialysis probe.
Coordinates used for implanting guide cannula in prefrontal cortex from Bregma were anteroposterior 3.7 mm, mediolateral 0.8 mm, and dorsoventral −2 mm (top of the probe was at −5 mm). The guide cannula was fixed to the skull with two stainless steel screws (1.88 mm outside diameter) anchored. An application of dental cement was added. A plastic collar allowed each animal to be tethered to a Swivel assembly of the CMA 120 awake animal system. Following surgery, rats were kept in individual cages and allowed to recover for a minimum of 3-5 days before the experimentation. The rats were handled and put in plastic bowl for 10 min at least every day to habituate the animals to their new environment for the dialysis. An I.P. administration with saline was also performed every day.
Dialysis probes (CMA12/3 mm, membrane, 20 kD cut-off, Carnegie Medicine, Stockholm, Sweden), were carefully washed before inserting into the guide cannula. The wash was performed with the artificial cerebrospinal fluid (aCSF) medium (NaCl 147 mM, KCl 2.7 mM, CaCl2 1.2 mM, MgCl2 0.85 mM) at room temperature. The dialysis system was then equilibrated at 20° C. at a perfusion rate of 1 μl/min with a Carnegie pump (CMA100). All catheters (FEP tubing, internal volume of 1.2 μl/10 cm, and tubing adaptors) used for microdialysis were treated in the same conditions.
The probes duly prepared were inserted into the guide cannula and the CMA120 Swivel assembly secured to the animal using a plastic collar. Flow through the dialysis probe with aCSF was maintained at a rate of 1 μl/min during the whole experimentation. The first four fractions (corresponding to 2 hours) were discarded to avoid the effects of parenchymal disturbance and to ensure that an approximate steady-state level was reached. Fractions were then collected over a period of 8.5 h during which time the animals remained quiet. The dialysates were automatically collected with an autosampler (microfraction collector CMA 140, Carnegie Medicin) and stored at −80° C. until analysis. […] Perfusion was then maintained for 7 hours with aCSF. The dialysates (30 μl) were collected into 300 μl vials, transferred into dry ice and then kept frozen (−80° C.) until analysis. Frozen samples were shipped to a partner for analysis. At the end of the microdialysis study, a PBS with colored ink was perfused through the probe in order to visualize the dialyzed area.
Catecholamine assay: Concentrations of dopamine, DOPAC, HVA, 5-HIAA, 5-HT, and norepinephrin were determined for each sample by HPLC coupled with electrochemical detection.

CN(C)CCCC1(c2ccc(F)cc2)OCc2cc(C#N)ccc21 (stereo not shown) [Citalopram, citalopram, reference compound]
HVA in dialysate, MEAN (T0-T30 min): 102.65 % of respective basal
HVA in dialysate, MEAN (T30-T1 h): 105.17 % of respective basal
HVA in dialysate, individual animals (T30-T1 h): 110.26 % of respective basal and 73.39 % of respective basal and 105.80 % of respective basal and 135.08 % of respective basal and 125.22 % of respective basal and 95.29 % of respective basal and 76.23 % of respective basal and 120.12 % of respective basal
HVA in dialysate, MEAN (T1 h 30-T2 h): 106.38 % of respective basal
HVA in dialysate, individual animals (T1 h 30-T2 h): 104.10 % of respective basal and 113.65 % of respective basal and 118.49 % of respective basal and 112.13 % of respective basal and 90.95 % of respective basal and 85.54 % of respective basal and 119.96 % of respective basal
HVA in dialysate, MEAN (T1 h-T1 h 30): 112.92 % of respective basal
HVA in dialysate, individual animals (T1 h-T1 h 30): 120.80 % of respective basal and 108.77 % of respective basal and 119.99 % of respective basal and 133.87 % of respective basal and 130.19 % of respective basal and 94.21 % of respective basal and 78.63 % of respective basal and 116.88 % of respective basal
HVA in dialysate, MEAN (T2 h 30-T3 h): 99.23 % of respective basal
HVA in dialysate, individual animals (T2 h 30-T3 h): 86.24 % of respective basal and 96.34 % of respective basal and 105.81 % of respective basal and 109.56 % of respective basal and 114.62 % of respective basal and 86.75 % of respective basal and 85.57 % of respective basal and 108.98 % of respective basal
HVA in dialysate, MEAN (T2 h-T2 h 30): 104.43 % of respective basal
HVA in dialysate, individual animals (T2 h-T2 h 30): 119.22 % of respective basal and 102.87 % of respective basal and 120.09 % of respective basal and 114.29 % of respective basal and 113.51 % of respective basal and 80.94 % of respective basal and 78.69 % of respective basal
HVA in dialysate, MEAN (T3 h 30-T4 h): 106.01 % of respective basal
HVA in dialysate, individual animals (T3 h 30-T4 h): 116.4 % of respective basal and 101.70 % of respective basal and 115.15 % of respective basal and 111.71 % of respective basal and 116.15 % of respective basal and 91.42 % of respective basal and 83.19 % of respective basal and 112.34 % of respective basal
HVA in dialysate, MEAN (T3 h-T3 h 30): 99.27 % of respective basal
HVA in dialysate, individual animals (T3 h-T3 h 30): 120.94 % of respective basal and 53.98 % of respective basal and 122.37 % of respective basal and 100.07 % of respective basal and 116.40 % of respective basal and 87.92 % of respective basal and 83.63 % of respective basal and 108.86 % of respective basal
HVA in dialysate, MEAN (T4 h 30-T5 h): 104.36 % of respective basal
HVA in dialysate, individual animals (T4 h 30-T5 h): 122.34 % of respective basal and 105.68 % of respective basal and 105.06 % of respective basal and 88.58 % of respective basal and 115.04 % of respective basal and 93.59 % of respective basal and 99.55 % of respective basal and 105.03 % of respective basal
HVA in dialysate, MEAN (T4 h-T4 h 30): 102.95 % of respective basal
HVA in dialysate, individual animals (T4 h-T4 h 30): 114.29 % of respective basal and 100.59 % of respective basal and 112.89 % of respective basal and 101.71 % of respective basal and 116.86 % of respective basal and 75.84 % of respective basal and 89.63 % of respective basal and 111.78 % of respective basal
HVA in dialysate, MEAN (T5 h 30-T6 h): 101.24 % of respective basal
HVA in dialysate, individual animals (T5 h 30-T6 h): 117.67 % of respective basal and 97.79 % of respective basal and 98.75 % of respective basal and 98.06 % of respective basal and 103.48 % of respective basal and 81.28 % of respective basal
HVA in dialysate, MEAN (T5 h-T5 h 30): 90.91 % of respective basal
HVA in dialysate, individual animals (T5 h-T5 h 30): 56.25 % of respective basal and 103.6 % of respective basal and 88.87 % of respective basal and 96.67 % of respective basal and 94.02 % of respective basal and 92.05 % of respective basal and 104.93 % of respective basal
HVA in dialysate, MEAN (T6 h 30-T7 h): 96.98 % of respective basal
HVA in dialysate, individual animals (T6 h 30-T7 h): 91.33 % of respective basal and 101.80 % of respective basal and 95.80 % of respective basal and 96.50 % of respective basal and 91.69 % of respective basal and 93.72 % of respective basal and 98.54 % of respective basal
HVA in dialysate, MEAN (T6 h-T6 h 30): 98.82 % of respective basal
HVA in dialysate, individual animals (T6 h-T6 h 30): 123.42 % of respective basal and 100.15 % of respective basal and 101.33 % of respective basal and 91.37 % of respective basal and 91.61 % of respective basal and 99.80 % of respective basal and 86.50 % of respective basal and 96.35 % of respective basal
HVA in dialysate, MEAN (T-30 min-T0 (pre-dose)): 100.15 % of respective basal
HVA in dialysate, MEAN (T-1 h 30-T-1 h (pre-dose)): 103.32 % of respective basal
HVA in dialysate, individual animals (T-1 h 30-T-1 h (pre-dose)): 98.60 % of respective basal and 95.37 % of respective basal
HVA in dialysate, MEAN (T-1 h-T-30 min (pre-dose)): 97.36 % of respective basal
